Assay results taken from patent publication US20260043028A1, “TREATMENT OF SPINAL MUSCULAR ATROPHY” (University of Pittsburgh - Of the Commonwealth System of …, priority 2023, published 2026).

Test system: human patients with Type 3 SMA
Experiment: Four-week spinal cord stimulation (SCS) trial in SMA patients with or without concurrent SMA therapy (Nusinersen), with long-term follow-up
Format: in vivo
Source text: This example describes a particular method that can be used to treat SMA in a patient by applying a therapeutically effective amount of an electrical stimulus to the dorsolateral aspect of the spinal cord containing sensory neurons innervating a body region of the patient with motor impairment due to SMA. Although particular methods and protocols are provided, one skilled in the art will appreciate that variations can be made without substantially affecting the treatment. Three patients with SMA were identified and participated in this spinal cord stimulation trial. […]
Three human patients with Type 3 SMA that show quantifiable motor deficits of the legs are selected for treatment. […]
This example aims to measure immediate, end-of-study, and long-term effects of SCS on SMA including various clinical outcomes. […] As used herein, “immediate” refers to effects measured during the four-week study and relates to the usage of SCS. […] As used herein, “end-of-study” refers to effects measured within about 1 week before or after the end of the four-week study, around the time that the SCS electrodes are removed. […] In particular, as used herein, “long-term” refers to effects measured 50+ days after the electrodes are removed and relates to changes in motor ability over time without the continuous application of SCS. […]

## Nusinersen
SMA02 and SMA03 (Nusinersen plus SCS) vs SMA01 (SCS only), during the four-week experiment
  results throughout the course of the four-week experiment, compared with the patient not treated with an SMA therapy: did not exhibit substantially better results
SMA02 and SMA03 on SMA therapy during SCS, long-term follow-up (50+ days after explant), SMA01 without therapy showed long-term degradation
  long-term course of the beneficial effects of SCS: long-term stability in the beneficial effects of SCS
